In patent US20250195682A1, “IMPROVED CELL-TARGETING BINDING MOLECULE” (priority 2018, published 2025):

What was measured:
[1] = pH dependent hydrolysis of the hydrazone bond (MALDI-TOF-MS); format: physicochemical; settings: HCl solution at pH 3
HeLa cells (EGFR+) = experiment: Cell viability (MTS) assay, HeLa cells; format: cell-based, human; settings: co-administered with SO1861 + dianthin-EGF, 500 nM PAMAM (native, thiolated, PEGylated) or chloroquine, 667 nM dendron
Experimental: (§1) After treatment the cells were incubated for 72 hr at 37° C. before the cell viability was determined by a MTS-assay, performed according to the manufacturer's instruction (CellTiter 96@AQueous One Solution Cell Proliferation Assay, Promega). Briefly, the MTS solution was diluted 20× in DMEM without phenol red (PAN-Biotech GmbH) supplemented with 10% FBS (PAN-Biotech GmbH). The cells were washed once with 200 μL PBS per well, after which 100 μL diluted MTS solution was added per well. The plate was incubated for approximately 20-30 minutes at 37° C. Subsequently, the optical density at 492 nm was measured on a Thermo Scientific Multiskan FC plate reader (Thermo Scientific). For quantification the background signal of ‘medium only’ wells was subtracted from all other wells, before the ratio of untreated/treated cells was calculated, by dividing the background corrected signal of untreated wells over the background corrected signal of the treated wells.

[2] = system: SK-BR-3, JIMT-1, MDA-MB-468, A431, CaSki, HeLa, A2058; experiment: Control treatments, relative cell viability on various cancer cell lines; format: cell-based, human; settings: toxins up to 100.000 pM
Experimental: as §1

For CC(=O)OC1C(C)OC(OC2C(C)OC(OC(=O)[C@]34CCC(C)(C)CC3C3=CCC5[C@@]6(C)CC[C@H](OC7OC(C(=O)O)C(O)C(OC8OCC(O)C(O)C8O)C7OC7OC(CO)C(O)C(O)C7O)[C@@](C)(/C=N/NC(=O)CCCCCN7C(=O)C=CC7=O)C6CC[C@@]5(C)[C@]3(C)C[C@H]4O)C(OC3OC(C)C(OC4OCC(O)C(OC5OC(CO)C(O)C(O)C5O)C4O)C(O)C3O)C2O)C(O)C1OC1OCC(O)C(O)C1O (stereo partly drawn) [SO1861-EMCH], the “hydrolysis of the hydrazone bond” value [1] was “the hydrazone bond is responsive towards hydrolysis and gets cleaved”.
For CCN(CC)CCCC(C)Nc1ccnc2cc(Cl)ccc12 (stereo not drawn) [chloroquine], the “effect on SO1861-mediated endosomal escape of the targeted toxin and cell killing” value (HeLa cells (EGFR+)) was “inhibit the SO1861-mediated endosomal escape”.
For saporin, the “influence on cell viability” value [2] was “do not or hardly have any influence on cell viability”.
